Key:
[1] = system: MDA-MB-231 (breast adenocarcinoma); assay: Cell viability of chemoresistant MDA-MB-231 cells (Tables 1, 2, 4); format: cell-based, human; details: alone or in association with cyclophosphamide
Source text: The activity of the association of at least one flavonoid, preferably selected from the group comprising or, alternatively, consisting of oxerutin, diosmin, hesperidin and rutin in association with melatonin and with synthetic chemotherapeutic agents (cyclophosphamide/methotrexate) and/or arctigenin, arctiin, berberine, berbamine, sanguinarine and chelerythrine (indicated with the term “Extracts” in the Tables) was studied in resistant cell lines of adenocarcinomas and carcinomas in comparison with chemosensitive tumour cell lines and line cells.

[2] = system: chemoresistant MDA-MB-231 human tumour cells (breast adenocarcinoma); assay: Viability of MDA-MB-231 cells, xCELLigence assay (Table 5); format: cell-based; details: conclusion from Tables 5 and 6 (MDA-MB-231 and MCF-7)

Structure (SMILES)	synergistic effects in association with cyclophosphamide [1]	effect on the anti-tumour activity of flavonoids [2]
O=c1c(O)c(-c2ccc(O)c(O)c2)oc2cc(O)cc(O)c12 [Quercetin, quercetin]	absence of synergistic effects	–
COc1ccc2[nH]cc(CCNC(C)=O)c2c1 [Melatonin, melatonin]	–	enhances the anti-tumour activity of flavonoids
